Measured values published in ChEMBL document CHEMBL2390945, “Synthesis and characterization of 123I-CMICE-013: a potential SPECT myocardial perfusion imaging agent” (Bioorg Med Chem, 2013).

Columns and labels:
Liver [1] = test: Biodistribution in Sprague-Dawley rat liver at 37 to 111 MBq, iv measured at 2 hrs by gamma counting analysis; type: ADME, organism-based; conditions: in vivo
[2] = Ratio of drug level in heart to blood in Sprague-Dawley rat at 37 to 111 MBq, iv measured at 24 hrs; type: ADME, organism-based
Kidney [3] = test: Biodistribution in Sprague-Dawley rat kidney at 37 to 111 MBq, iv measured at 2 hrs by gamma counting analysis; type: ADME, organism-based; conditions: in vivo
[4] = Drug uptake in Sprague-Dawley rat myocardium at 37 to 111 MBq, iv measured for 60 mins by TTC staining-based micro-SPECT analysis; type: ADME, organism-based; conditions: in vivo, 1 h
[5] = Ratio of drug level in heart to blood in Sprague-Dawley rat at 37 to 111 MBq, iv measured at 2 hrs; type: ADME, organism-based
Ovary [6] = test: Biodistribution in Sprague-Dawley rat ovary at 37 to 111 MBq, iv measured at 24 hrs by gamma counting analysis; type: ADME, organism-based, Female gonad; conditions: in vivo
[7] = Ratio of drug level in heart to lung in Sprague-Dawley rat at 37 to 111 MBq, iv measured at 24 hrs; conditions: in vivo
[8] = Biodistribution in Sprague-Dawley rat urine at 37 to 111 MBq, iv measured at 2 hrs by gamma counting analysis; type: ADME, organism-based; conditions: in vivo
Blood [9] = test: Biodistribution in Sprague-Dawley rat blood at 37 to 111 MBq, iv measured at 24 hrs by gamma counting analysis; type: ADME, organism-based; conditions: in vivo
Rattus norvegicus [10] = test: Biodistribution in Sprague-Dawley rat stomach at 37 to 111 MBq, iv measured at 24 hrs by gamma counting analysis; type: ADME, organism-based; conditions: in vivo
Rattus norvegicus [11] = test: Biodistribution in Sprague-Dawley rat testis at 37 to 111 MBq, iv measured at 2 hrs by gamma counting analysis; type: ADME, organism-based; conditions: in vivo
Lung [12] = test: Biodistribution in Sprague-Dawley rat lung at 37 to 111 MBq, iv measured at 2 hrs by gamma counting analysis; type: ADME, organism-based; conditions: in vivo
Heart [13] = test: Biodistribution in Sprague-Dawley rat heart at 37 to 111 MBq, iv measured at 2 hrs by gamma counting analysis; type: ADME, organism-based; conditions: in vivo
[14] = Drug uptake in Sprague-Dawley rat parathyroid at 37 to 111 MBq, iv measured for 60 mins by TTC staining-based micro-SPECT analysis; type: ADME, organism-based, Thyroid gland; conditions: in vivo, 1 h
Thyroid gland [15] = test: Biodistribution in Sprague-Dawley rat thyroid assessed per organ at 37 to 111 MBq, iv measured at 24 hrs by gamma counting analysis; type: ADME, organism-based; conditions: in vivo
Liver [16] = test: Biodistribution in Sprague-Dawley rat liver at 37 to 111 MBq, iv measured at 24 hrs by gamma counting analysis; type: ADME, organism-based; conditions: in vivo
Heart [17] = test: Biodistribution in Sprague-Dawley rat heart at 37 to 111 MBq, iv measured at 24 hrs by gamma counting analysis; type: ADME, organism-based; conditions: in vivo
[18] = Biodistribution in Sprague-Dawley rat urine at 37 to 111 MBq, iv measured at 24 hrs by gamma counting analysis; type: ADME, organism-based; conditions: in vivo
Thyroid gland [19] = test: Biodistribution in Sprague-Dawley rat thyroid at 37 to 111 MBq, iv measured at 2 hrs by gamma counting analysis; type: ADME, organism-based; conditions: in vivo
Thyroid gland [20] = test: Biodistribution in Sprague-Dawley rat thyroid assessed per organ at 37 to 111 MBq, iv measured at 2 hrs by gamma counting analysis; type: ADME, organism-based; conditions: in vivo
Ovary [21] = test: Biodistribution in Sprague-Dawley rat ovary at 37 to 111 MBq, iv measured at 2 hrs by gamma counting analysis; type: ADME, organism-based, Female gonad; conditions: in vivo
Blood [22] = test: Biodistribution in Sprague-Dawley rat blood at 37 to 111 MBq, iv measured at 2 hrs by gamma counting analysis; type: ADME, organism-based; conditions: in vivo
Kidney [23] = test: Biodistribution in Sprague-Dawley rat kidney at 37 to 111 MBq, iv measured at 24 hrs by gamma counting analysis; type: ADME, organism-based; conditions: in vivo
Rattus norvegicus [24] = test: Biodistribution in Sprague-Dawley rat testis at 37 to 111 MBq, iv measured at 24 hrs by gamma counting analysis; type: ADME, organism-based; conditions: in vivo
Muscle tissue [25] = test: Biodistribution in Sprague-Dawley rat muscle at 37 to 111 MBq, iv measured at 2 hrs by gamma counting analysis; type: ADME, organism-based; conditions: in vivo
[26] = Ratio of drug level in heart to liver in Sprague-Dawley rat at 37 to 111 MBq, iv measured at 2 hrs; conditions: in vivo
Intestine [27] = test: Biodistribution in Sprague-Dawley rat intestine at 37 to 111 MBq, iv measured at 24 hrs by gamma counting analysis; type: ADME, organism-based; conditions: in vivo
[28] = Ratio of drug level in heart to lung in Sprague-Dawley rat at 37 to 111 MBq, iv measured at 2 hrs; conditions: in vivo
Brain [29] = test: Biodistribution in Sprague-Dawley rat brain at 37 to 111 MBq, iv measured at 24 hrs by gamma counting analysis; type: ADME, organism-based; conditions: in vivo
[30] = Ratio of drug level in heart to liver in Sprague-Dawley rat at 37 to 111 MBq, iv measured at 24 hrs; conditions: in vivo
Brain [31] = test: Biodistribution in Sprague-Dawley rat brain at 37 to 111 MBq, iv measured at 2 hrs by gamma counting analysis; type: ADME, organism-based; conditions: in vivo
Spleen [32] = test: Biodistribution in Sprague-Dawley rat spleen at 37 to 111 MBq, iv measured at 2 hrs by gamma counting analysis; type: ADME, organism-based; conditions: in vivo
Thyroid gland [33] = test: Drug uptake in Sprague-Dawley rat thyroid at 37 to 111 MBq, iv measured for 60 mins by TTC staining-based micro-SPECT analysis; type: ADME, organism-based; conditions: in vivo, 1 h
Liver [34] = test: Drug uptake in Sprague-Dawley rat liver at 37 to 111 MBq, iv measured for 60 mins by TTC staining-based micro-SPECT analysis; type: ADME, organism-based; conditions: in vivo, 1 h
Rattus norvegicus [35] = test: Biodistribution in Sprague-Dawley rat urinary bladder at 37 to 111 MBq, iv measured at 2 hrs by gamma counting analysis; type: ADME, organism-based; conditions: in vivo
[36] = Drug uptake in left ventricle of Sprague-Dawley rat ischemia reperfusion injury model at 74 MBq, iv measured for 60 mins by TTC staining-based micro-SPECT analysis; type: ADME, organism-based, Heart left ventricle; conditions: in vivo, 1 h
Femur [37] = test: Biodistribution in Sprague-Dawley rat femur at 37 to 111 MBq, iv measured at 24 hrs by gamma counting analysis; type: ADME, organism-based; conditions: in vivo
Intestine [38] = test: Biodistribution in Sprague-Dawley rat intestine at 37 to 111 MBq, iv measured at 2 hrs by gamma counting analysis; type: ADME, organism-based; conditions: in vivo
Thyroid gland [39] = test: Biodistribution in Sprague-Dawley rat thyroid at 37 to 111 MBq, iv measured at 24 hrs by gamma counting analysis; type: ADME, organism-based; conditions: in vivo
Rattus norvegicus [40] = test: Biodistribution in Sprague-Dawley rat urinary bladder at 37 to 111 MBq, iv measured at 24 hrs by gamma counting analysis; type: ADME, organism-based; conditions: in vivo
Rattus norvegicus [41] = test: Biodistribution in Sprague-Dawley rat stomach at 37 to 111 MBq, iv measured at 2 hrs by gamma counting analysis; type: ADME, organism-based; conditions: in vivo
[42] = Drug uptake in left ventricle of Sprague-Dawley rat left anterior descending occlusion model at 74 MBq, iv measured for 60 mins by TTC staining-based micro-SPECT analysis; type: ADME, organism-based, Heart left ventricle; conditions: in vivo, 1 h
Muscle tissue [43] = test: Biodistribution in Sprague-Dawley rat muscle at 37 to 111 MBq, iv measured at 24 hrs by gamma counting analysis; type: ADME, organism-based; conditions: in vivo
Femur [44] = test: Biodistribution in Sprague-Dawley rat femur at 37 to 111 MBq, iv measured at 2 hrs by gamma counting analysis; type: ADME, organism-based; conditions: in vivo
Lung [45] = test: Drug uptake in Sprague-Dawley rat lung at 37 to 111 MBq, iv measured for 60 mins by TTC staining-based micro-SPECT analysis; type: ADME, organism-based; conditions: in vivo, 1 h
Lung [46] = test: Biodistribution in Sprague-Dawley rat lung at 37 to 111 MBq, iv measured at 24 hrs by gamma counting analysis; type: ADME, organism-based; conditions: in vivo
Spleen [47] = test: Biodistribution in Sprague-Dawley rat spleen at 37 to 111 MBq, iv measured at 24 hrs by gamma counting analysis; type: ADME, organism-based; conditions: in vivo
[48] = Biodistribution in rat liver at 15 mins; type: ADME, organism-based; conditions: read-out: Drug uptake
[49] = Biodistribution in rat liver at 60 mins; type: ADME, organism-based; conditions: read-out: Drug uptake

COc1cc2c(cc1OC)[C@@H]1C(=O)c3ccc4c(c3O[C@@H]1CO2)C[C@H](C(C)(O)C[123I])O4 (some centres undefined)
Drug uptake (Liver [1]): 0.709 % ID/g
Kp at 24 h [2]: 0.79
Drug uptake (Kidney [3]): 0.7 % ID/g
Drug uptake [4]: Active
Kp at 2 h [5]: 8.37
Drug uptake (Ovary [6]): 0.04 % ID/g
Ratio [7]: 0.85
Drug uptake [8]: 0.918 % ID/g
Drug uptake (Blood [9]): 0.06 % ID/g
Drug uptake (Rattus norvegicus [10]): 2.121 % ID/g
Drug uptake (Rattus norvegicus [11]): 0.22 % ID/g
Drug uptake (Lung [12]): 0.502 % ID/g
Drug uptake (Heart [13]): 2.01 % ID/g
Drug uptake [14]: Active
Drug uptake (Thyroid gland [15]): 3.16 %ID
Drug uptake (Liver [16]): 0.042 % ID/g
Drug uptake (Heart [17]): 0.045 % ID/g
Drug uptake [18]: 0.768 % ID/g
Drug uptake (Thyroid gland [19]): 1.368 % ID/g
Drug uptake (Thyroid gland [20]): 0.334 %ID
Drug uptake (Ovary [21]): 0.22 % ID/g
Drug uptake (Blood [22]): 0.257 % ID/g
Drug uptake (Kidney [23]): 0.044 % ID/g
Drug uptake (Rattus norvegicus [24]): 0.04 % ID/g
Drug uptake (Muscle tissue [25]): 0.357 % ID/g
Ratio [26]: 2.98
Drug uptake (Intestine [27]): 0.122 % ID/g
Ratio [28]: 4.11
Drug uptake (Brain [29]): 0.003 % ID/g
Ratio [30]: 1.08
Drug uptake (Brain [31]): 0.098 % ID/g
Drug uptake (Spleen [32]): 0.234 % ID/g
Drug uptake (Thyroid gland [33]): Active
Drug uptake (Liver [34]): Not Active
Drug uptake (Rattus norvegicus [35]): 0.918 % ID/g
Drug uptake [36]: Active
Drug uptake (Femur [37]): 0.025 % ID/g
Drug uptake (Intestine [38]): 0.846 % ID/g
Drug uptake (Thyroid gland [39]): 13.329 % ID/g
Drug uptake (Rattus norvegicus [40]): 0.768 % ID/g
Drug uptake (Rattus norvegicus [41]): 3.263 % ID/g
Drug uptake [42]: Active
Drug uptake (Muscle tissue [43]): 0.024 % ID/g
Drug uptake (Femur [44]): 0.242 % ID/g
Drug uptake (Lung [45]): Not Active
Drug uptake (Lung [46]): 0.055 % ID/g
Drug uptake (Spleen [47]): 0.032 % ID/g

CC(C)(C)n1ncc(OCc2ccc(CCCC[18F])cc2)c(Cl)c1=O
tissue uptake at 0.25 h [48]: 1.6 %ID/g
tissue uptake at 1 h [49]: 1.3 %ID/g
